In PMC3202585, “Venom of Parasitoid, Pteromalus puparum, Suppresses Host, Pieris rapae, Immune Promotion by Decreasing Host C-Type Lectin Gene Expression” (PLoS ONE, 2011):

Target: T1, Pr-CTL (Pieris rapae, UniProt G5CJE6)
T1 construct: two tandem CRDs (residues 41-151 and 184-302)
T1 sequence (G5CJE6 20-313): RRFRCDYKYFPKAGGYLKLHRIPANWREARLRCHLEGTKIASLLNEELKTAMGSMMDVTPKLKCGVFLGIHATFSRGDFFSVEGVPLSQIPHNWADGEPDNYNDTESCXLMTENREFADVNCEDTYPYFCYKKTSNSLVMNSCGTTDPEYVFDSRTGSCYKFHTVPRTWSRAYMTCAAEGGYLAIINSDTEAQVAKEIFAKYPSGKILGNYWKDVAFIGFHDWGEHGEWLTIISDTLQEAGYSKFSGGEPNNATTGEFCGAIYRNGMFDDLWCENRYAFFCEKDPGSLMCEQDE
Test: carbohydrate binding assay (data not shown)
Conditions: calcium-dependent, described as agglutination of carbohydrates

Row | Structure (SMILES) | carbohydrate binding assay (data not shown)
1 | OC[C@H]1OC(O)[C@@H](O)[C@@H](O)[C@@H]1O (some centres unmarked) [mannose] | recombinant Pr-CTL possesses the calcium-dependent agglutination of different kind of carbohydrates, such as mannose
2 | OC[C@H]1OC(O)[C@H](O)[C@@H](O)[C@H]1O (some centres unmarked) [galactose] | agglutination of different kind of carbohydrates, such as mannose, galactose and peptidoglycan (data not shown)
